Experimental data reported in patent publication US20090018194A1, “Use of antimicrobial agents derived from alliaceous plants for the prevention and control of crop diseases, post-harvest rot and as environmental disinifectant products” (DMC Research Center, S.L., priority 2007, published 2009).

Columns and labels:
[1] = system: Salmonella typhimurium ATCC 13311; test: agar diffusion test with impregnated cellulose discs; format: cell-based; conditions: incl. 6 mm disc
[2] = system: Penicillium digitatum Wild strain Supplied by UdL-IRTA; test: agar diffusion test, wild phytopathogens isolated from citrus rot; format: cell-based; conditions: incl. 6 mm disc
[3] = system: Phytophthora citrophthora CECT 2353; test: as above; format: cell-based; conditions: incl. 6 mm disc
[4] = system: FUNGI; test: environmental disinfection of banana storage and ripening rooms by fogging, air sampling; conditions: fogging of 1500 ppm solution; for MICROBE COUNTS FUNGI CFU/dish: 80 liters collected/dish; for % REDUCTION OF ENVIRONMENTAL MICROBIOTA Fungal population: after vs before treatment
Description: (§1) A study was conducted to verify the environmental disinfecting capability of the compound PTS in rooms of a fruit and vegetable processing plant, in particular one that handled bananas. For test purposes, three separate rooms of the central were sampled, and the environmental quality was studied before and after the treatment with PTS. First, an environmental sample was taken in each room prior to the treatment, using an […]-Omega air sampling device manufactured by LCB, by suctioning a volume of air set at 80 L which impacted over the different cultivation media selected. The samples were taken in duplicate in the areas to be analyzed. PCA agar medium was used to count the total mesophilic aerobes, and the medium Rose Bengal agar was used to count the fungi. The environmental disinfectant treatment comprised fogging of a 1500 ppm solution of PTS. 5 liters of this solution were fogged for each 1000 m^3 of the room. […] Several hours after the fogging, the sampling operation was repeated in the different rooms that had been treated as described above. […] Once the incubation time had elapsed, the readings were taken by counting the microorganisms that appeared in each type of dish, expressed as cfu/dish.

[5] = system: Total mesophilic AEROBES; test: as above; conditions: fogging of 1500 ppm solution; for MICROBE COUNTS Total mesophilic AEROBES CFU/dish: 80 liters collected/dish; for % REDUCTION OF ENVIRONMENTAL MICROBIOTA Population of total mesophilic aerobes: after vs before treatment
Description: as §1

[6] = system: Colletotrichum sp. (CPC-PC-6); test: agar diffusion test, wild fungi isolated from crown rot in bananas; format: cell-based; conditions: incl. 6 mm disc
Description: (§2) A. The “in vitro” antimicrobial activity of these compounds was tested (referenced as PTS and PTSO), at different doses, as well as their activity against a broad spectrum of bacteria, fungi and yeasts. The tests were conducted against standard micro-organisms (reference strains from different collections of standard crops) and also against wild strains isolated from different types of rot and fruits and other affected crops.
(§3) These tests of antimicrobial capacity were conducted according to the agar diffusion technique, using cellulose discs 6 mm in diameter, impregnated with the different doses under study. For the assessment of the anti-fungal capability, the medium Sabouraud glucosate agar 2% was used, inoculated with suspensions of spores prepared to a concentration on the order of 10^8 cells/ml. To assess the antibacterial capability, the cultivation medium Müller-Hinton agar was used, inoculated with suspensions of bacteria prepared to a concentration of 10^6 cells/ml.
(§4) Once the plates were inoculated, the discs previously impregnated with the different test doses of each of the compounds to be analyzed were put in place. The reading was taken after incubation of the plates by measuring the zone of inhibition that appeared, and the result was expressed in mm corresponding to the diameter of the halo that appeared (including the 6 mm of the cellulose disc).
(§5) Once the screening of the anti-microbial capability of the compounds claimed by the invention had been performed over a broad range of reference strains, their efficiency was corroborated against wild strains, which we isolated as specific pathogens that affect different crops of different geographic origins.

[7] = system: Fusarium sp. (CPC-PT-8); test: as above; format: cell-based; conditions: incl. 6 mm disc
Description: as §2, §3, §4, §5

[8] = system: Colletotrichum sp. (CPC-PT-5); test: as above; format: cell-based; conditions: incl. 6 mm disc
Description: as §2, §3, §4, §5

[9] = system: Unidentified yeast (CPC-PT-10); test: as above; format: cell-based; conditions: incl. 6 mm disc
Description: as §2, §3, §4, §5

[10] = system: Fusarium sp. (CPC-PT-9); test: as above; format: cell-based; conditions: incl. 6 mm disc
Description: as §2, §3, §4, §5

[11] = system: Fusarium sp. (CPC-PT-7); test: as above; format: cell-based; conditions: incl. 6 mm disc
Description: as §2, §3, §4, §5

[12] = system: mixture of fungi (P. expansum, P. italicum, P. digitatum and A. alternata); test: disinfection of rooms by means of fogging
[13] = system: Penicillium italicum Wild strain Supplied by UdL-IRTA; test: agar diffusion test, wild phytopathogens isolated from citrus rot; format: cell-based; conditions: incl. 6 mm disc
[14] = Zone 1 of the ripening room after treatment
[15] = Zone 2 of the ripening room after treatment

In the case of `CCCS[S+]([O-])CCC` (stereo not drawn) [PTS, Propyl Propyl Thiosulfinate], the “diameter of the microbial inhibition halo” value ([1]; 60 ppm) is reported as 11 mm, the “diameter of the microbial inhibition halo” value ([1]; 125 ppm) is reported as 15 mm and the “diameter of the microbial inhibition halo” value ([1]; 250 ppm) is reported as 22 mm. The “diameter of the microbial inhibition halo” value ([1]; 500 ppm) was 23 mm, the “diameter of the microbial inhibition halo” value ([1]; 1000 ppm) was 25 mm and the “diameter of the microbial inhibition halo” value ([2]; 30 ppm) was 12 mm. For the same molecule, the “diameter of the microbial inhibition halo” value ([2]; 60 ppm) was 15 mm, the “diameter of the microbial inhibition halo” value ([2]; 125 ppm) was 20 mm and the “diameter of the microbial inhibition halo” value ([2]; 250 ppm) was 33 mm. For the same molecule, the “diameter of the microbial inhibition halo” value ([2]; 500 ppm) was 40 mm, the “diameter of the microbial inhibition halo” value ([2]; 1000 ppm) was 41 mm and the “diameter of the microbial inhibition halo” value ([3]; 30 ppm) was 10 mm. For the same molecule, the “diameter of the microbial inhibition halo” value ([3]; 60 ppm) was 21 mm, the “diameter of the microbial inhibition halo” value ([3]; 125 ppm) was 23 mm and the “diameter of the microbial inhibition halo” value ([3]; 250 ppm) was 42 mm. For the same molecule, the “diameter of the microbial inhibition halo” value ([3]; 500 ppm) was 53 mm, the “diameter of the microbial inhibition halo” value ([3]; 1000 ppm) was 55 mm and the “MICROBE COUNTS FUNGI CFU/m^3” value ([4]; Entry room after treatment) was 707 CFU/m^3. For the same molecule, the “MICROBE COUNTS FUNGI CFU/dish” value ([4]; Entry room after treatment) was 51 CFU/dish, the “% REDUCTION OF ENVIRONMENTAL MICROBIOTA Fungal population” value ([4]; Entry room) was 70% and the “MICROBE COUNTS FUNGI CFU/m^3” value [4, 14] was 273 CFU/m^3. For the same molecule, the “MICROBE COUNTS FUNGI CFU/dish” value [4, 14] was 21 CFU/dish, the “% REDUCTION OF ENVIRONMENTAL MICROBIOTA Fungal population” value ([4]; Zone 1 of the ripening room) was 23% and the “MICROBE COUNTS FUNGI CFU/m^3” value [4, 15] was 328 CFU/m^3. For the same molecule, the “MICROBE COUNTS FUNGI CFU/dish” value [4, 15] was 25 CFU/dish, the “% REDUCTION OF ENVIRONMENTAL MICROBIOTA Fungal population” value ([4]; Zone 2 of the ripening room) was 36% and the “MICROBE COUNTS Total mesophilic AEROBES CFU/m^3” value ([5]; Entry room after treatment) was 314 CFU/m^3. The “MICROBE COUNTS Total mesophilic AEROBES CFU/dish” value ([5]; Entry room after treatment) was 24 CFU/dish, the “% REDUCTION OF ENVIRONMENTAL MICROBIOTA Population of total mesophilic aerobes” value ([5]; Entry room) was 65% and the “MICROBE COUNTS Total mesophilic AEROBES CFU/m^3” value [5, 14] was 287 CFU/m^3. For the same molecule, the “MICROBE COUNTS Total mesophilic AEROBES CFU/dish” value [5, 14] was 22 CFU/dish, the “% REDUCTION OF ENVIRONMENTAL MICROBIOTA Population of total mesophilic aerobes” value ([5]; Zone 1 of the ripening room) was 69% and the “MICROBE COUNTS Total mesophilic AEROBES CFU/m^3” value [5, 15] was 1487 CFU/m^3. For the same molecule, the “MICROBE COUNTS Total mesophilic AEROBES CFU/dish” value [5, 15] was 96 CFU/dish, the “% REDUCTION OF ENVIRONMENTAL MICROBIOTA Population of total mesophilic aerobes” value ([5]; Zone 2 of the ripening room) was 58% and the “diameter of the microbial inhibition halo” value ([6]; 30 ppm) was 20 mm. For the same molecule, the “diameter of the microbial inhibition halo” value ([6]; 60 ppm) was 30 mm, the “diameter of the microbial inhibition halo” value ([6]; 125 ppm) was 35 mm and the “diameter of the microbial inhibition halo” value ([6]; 250 ppm) was 47 mm. The “diameter of the microbial inhibition halo” value ([6]; 500 ppm) was 48 mm, the “diameter of the microbial inhibition halo” value ([6]; 1000 ppm) was 45 mm and the “diameter of the microbial inhibition halo” value ([7]; 30 ppm) was 0 mm. For the same molecule, the “diameter of the microbial inhibition halo” value ([7]; 60 ppm) was 10 mm, the “diameter of the microbial inhibition halo” value ([7]; 125 ppm) was 12 mm and the “diameter of the microbial inhibition halo” value ([7]; 250 ppm) was 15 mm. For the same molecule, the “diameter of the microbial inhibition halo” value ([7]; 500 ppm) was 20 mm, the “diameter of the microbial inhibition halo” value ([7]; 1000 ppm) was 20 mm and the “diameter of the microbial inhibition halo” value ([8]; 30 ppm) was 10 mm. The “diameter of the microbial inhibition halo” value ([8]; 60 ppm) was 20 mm, the “diameter of the microbial inhibition halo” value ([8]; 125 ppm) was 30 mm and the “diameter of the microbial inhibition halo” value ([8]; 250 ppm) was 40 mm. The “diameter of the microbial inhibition halo” value ([8]; 500 ppm) was 43 mm, the “diameter of the microbial inhibition halo” value ([8]; 1000 ppm) was 43 mm and the “diameter of the microbial inhibition halo” value ([9]; 30 ppm) was 40 mm. For the same molecule, the “diameter of the microbial inhibition halo” value ([9]; 60 ppm) was 45 mm, the “diameter of the microbial inhibition halo” value ([9]; 125 ppm) was 50 mm and the “diameter of the microbial inhibition halo” value ([9]; 250 ppm) was 55 mm. For the same molecule, the “diameter of the microbial inhibition halo” value ([9]; 500 ppm) was 63 mm, the “diameter of the microbial inhibition halo” value ([9]; 1000 ppm) was 65 mm and the “diameter of the microbial inhibition halo” value ([10]; 30 ppm) was 0 mm. The “diameter of the microbial inhibition halo” value ([10]; 60 ppm) was 0 mm, the “diameter of the microbial inhibition halo” value ([10]; 125 ppm) was 0 mm and the “diameter of the microbial inhibition halo” value ([10]; 250 ppm) was 15 mm. The “diameter of the microbial inhibition halo” value ([10]; 500 ppm) was 30 mm, the “diameter of the microbial inhibition halo” value ([10]; 1000 ppm) was 33 mm and the “diameter of the microbial inhibition halo” value ([11]; 30 ppm) was 0 mm. For the same molecule, the “diameter of the microbial inhibition halo” value ([11]; 60 ppm) was 0 mm, the “diameter of the microbial inhibition halo” value ([11]; 125 ppm) was 15 mm and the “diameter of the microbial inhibition halo” value ([11]; 250 ppm) was 25 mm. The “diameter of the microbial inhibition halo” value ([11]; 500 ppm) was 25 mm, the “diameter of the microbial inhibition halo” value ([11]; 1000 ppm) was 35 mm and the “Reduction in the population of the mixture of fungi expressed in %” value (shortened to “Reduction in the population … in %”) ([12]; 750 ppm, Environment) was 89%. The “Reduction in the population … in %” value ([12]; 750 ppm, Walls) was 96%, the “Reduction in the population … in %” value ([12]; 1050 ppm, Environment) was 100% and the “Reduction in the population … in %” value ([12]; 1050 ppm, Walls) was 97%. The “diameter of the microbial inhibition halo” value ([13]; 30 ppm) was 0 mm, the “diameter of the microbial inhibition halo” value ([13]; 60 ppm) was 0 mm and the “diameter of the microbial inhibition halo” value ([13]; 125 ppm) was 13 mm. The “diameter of the microbial inhibition halo” value ([13]; 250 ppm) was 13 mm, the “diameter of the microbial inhibition halo” value ([13]; 500 ppm) was 15 mm and the “diameter of the microbial inhibition halo” value ([13]; 1000 ppm) was 20 mm.

With `CCCSS(=O)(=O)CCC` [PTSO, Propyl Propyl Thiosulfonate] the “diameter of the microbial inhibition halo” value ([1]; 60 ppm) was 16 mm, the “diameter of the microbial inhibition halo” value ([1]; 125 ppm) was 17 mm and the “diameter of the microbial inhibition halo” value ([1]; 250 ppm) was 25 mm. The “diameter of the microbial inhibition halo” value ([1]; 500 ppm) was 25 mm, the “diameter of the microbial inhibition halo” value ([1]; 1000 ppm) was 27 mm and the “Reduction in the population … in %” value ([12]; 2000 ppm, Environment) was 100%. For the same molecule, the “Reduction in the population … in %” value ([12]; 2000 ppm, Walls) was 95%, the “Reduction in the population … in %” value ([12]; 5000 ppm, Environment) was 100% and the “Reduction in the population … in %” value ([12]; 5000 ppm, Walls) was 100%.
